According to ChEMBL document CHEMBL1201862, “PubChem BioAssay data set” (2004):
Several values for one entry are separate records, joined by “and”; a condition that tells them apart may be missing. Equal entries are not always repeated. Activity calls are given as the source filed them.

Assays:
[1] = target: T1, Neuropeptide Y receptor type 2 (Homo sapiens, UniProt P49146); type: functional, cell-based;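 further: HEK293 cells expressing the receptor and a CNG channel; stimulus was NPY near EC95 followed by isoproterenol to raise cAMP; antagonist potency measured as restoring cAMP signal that NPY suppresses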
T1 sequence (P49146 whole entry): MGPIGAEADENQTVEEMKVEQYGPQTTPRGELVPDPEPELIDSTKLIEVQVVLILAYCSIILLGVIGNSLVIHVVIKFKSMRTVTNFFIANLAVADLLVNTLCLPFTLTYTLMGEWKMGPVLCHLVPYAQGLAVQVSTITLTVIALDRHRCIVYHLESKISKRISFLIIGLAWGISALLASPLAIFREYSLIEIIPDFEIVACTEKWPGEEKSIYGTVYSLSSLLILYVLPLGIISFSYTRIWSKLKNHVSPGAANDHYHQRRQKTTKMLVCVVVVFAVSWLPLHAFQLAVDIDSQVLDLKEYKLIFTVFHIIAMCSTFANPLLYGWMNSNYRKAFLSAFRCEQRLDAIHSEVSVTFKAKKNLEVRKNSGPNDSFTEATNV

[2] = target: T2, Neuropeptide Y receptor type 1 (Homo sapiens, UniProt P25929); type: functional;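 further: HEK293 cells with a CNG channel challenged with NPY then isoproterenol; potency as antagonist that reverses NPY suppression of cAMP signal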
T2 sequence (P25929 whole entry): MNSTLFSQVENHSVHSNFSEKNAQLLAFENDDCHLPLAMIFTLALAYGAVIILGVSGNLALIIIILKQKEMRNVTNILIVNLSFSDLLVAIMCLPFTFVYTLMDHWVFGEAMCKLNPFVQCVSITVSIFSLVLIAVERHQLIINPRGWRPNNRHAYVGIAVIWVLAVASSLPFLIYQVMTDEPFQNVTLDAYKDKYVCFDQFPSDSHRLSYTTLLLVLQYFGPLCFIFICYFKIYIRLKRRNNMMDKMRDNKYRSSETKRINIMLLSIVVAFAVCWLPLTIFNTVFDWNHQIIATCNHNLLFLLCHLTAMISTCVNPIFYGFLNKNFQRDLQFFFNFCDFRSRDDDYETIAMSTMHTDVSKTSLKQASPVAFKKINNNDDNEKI

HT-1080 = experiment: cytotoxicity in HT1080 fibrosarcoma cells, cell-based, fluorescence readout (AID 620); type: functional; conditions: Homo sapiens
[3] = target: Luciferin 4-monooxygenase (Photinus pyralis, UniProt P08659); experiment: Counter Screen for Luciferase-based Assay Positives. [Related pubchem assays: 620, 618, 411 ]
[4] = target: T3, Rac GTPase-activating protein 1 (Homo sapiens, UniProt Q9H0H5); experiment: MgcRacGAP GTPase-activating activity inhibitors, confirmation, biochemical, ADP Hunter fluorescence, primary and confirmatory (AID 624330); type: functional
T3 sequence (Q9H0H5 whole entry): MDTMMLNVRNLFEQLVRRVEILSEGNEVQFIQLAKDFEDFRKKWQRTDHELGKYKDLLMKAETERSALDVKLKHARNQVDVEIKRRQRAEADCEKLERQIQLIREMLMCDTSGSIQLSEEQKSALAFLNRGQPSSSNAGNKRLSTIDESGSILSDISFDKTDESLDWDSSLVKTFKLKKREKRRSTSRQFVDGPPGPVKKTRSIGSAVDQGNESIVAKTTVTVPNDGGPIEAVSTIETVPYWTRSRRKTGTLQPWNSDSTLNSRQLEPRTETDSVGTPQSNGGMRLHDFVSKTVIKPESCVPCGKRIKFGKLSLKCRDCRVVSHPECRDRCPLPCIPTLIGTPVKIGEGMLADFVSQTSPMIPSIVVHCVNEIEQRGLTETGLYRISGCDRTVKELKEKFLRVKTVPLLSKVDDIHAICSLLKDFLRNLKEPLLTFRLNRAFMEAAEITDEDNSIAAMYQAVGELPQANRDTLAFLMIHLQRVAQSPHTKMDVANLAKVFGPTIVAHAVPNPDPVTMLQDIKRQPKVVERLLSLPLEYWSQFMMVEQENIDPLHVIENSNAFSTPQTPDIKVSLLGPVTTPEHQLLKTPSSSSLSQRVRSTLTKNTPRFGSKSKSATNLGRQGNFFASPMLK

[5] = P. falciparum late gametocyte killing, dose response, luminescence (AID 1117278); type: functional, cell-based;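 further: gametocytes exposed to compound for 24 hours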
[6] = Jurkat T cell cytotoxicity, dose response, cytotoxicity control for P. falciparum gametocyte viability project, luminescence (AID 1117277); type: functional, cell-based;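 further: potency reflects loss of cellular ATP meaning fewer viable cells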
Estrogen receptor = target: T4, Estrogen receptor (Homo sapiens, UniProt P03372);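 further: potency for inhibiting coactivator peptide recruitment to the receptor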
T4 sequence (P03372 whole entry): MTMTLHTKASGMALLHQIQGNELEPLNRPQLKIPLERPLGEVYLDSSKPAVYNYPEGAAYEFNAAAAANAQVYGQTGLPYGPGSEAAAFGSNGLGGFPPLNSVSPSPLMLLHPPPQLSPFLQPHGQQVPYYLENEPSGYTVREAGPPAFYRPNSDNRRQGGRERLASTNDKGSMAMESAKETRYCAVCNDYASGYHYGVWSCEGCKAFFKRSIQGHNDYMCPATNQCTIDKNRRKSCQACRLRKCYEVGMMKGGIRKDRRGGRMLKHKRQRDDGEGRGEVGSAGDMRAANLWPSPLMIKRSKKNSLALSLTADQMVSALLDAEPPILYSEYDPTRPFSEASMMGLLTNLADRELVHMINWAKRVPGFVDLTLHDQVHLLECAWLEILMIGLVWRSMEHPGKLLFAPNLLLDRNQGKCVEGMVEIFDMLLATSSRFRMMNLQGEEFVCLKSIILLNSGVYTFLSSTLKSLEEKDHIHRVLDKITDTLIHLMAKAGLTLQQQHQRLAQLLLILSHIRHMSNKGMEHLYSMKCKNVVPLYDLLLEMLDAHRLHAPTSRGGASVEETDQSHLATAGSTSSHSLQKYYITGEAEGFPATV

Estrogen receptor beta [7] = target: T5, Estrogen receptor beta (Homo sapiens, UniProt Q92731); experiment: ERβ–SRC-3 coactivator interaction inhibitors, confirmation, orthogonal assay, biochemical, ELISA, streptavidin-HRP readout (AID 1060)
Estrogen receptor beta [8] = target: T5, Estrogen receptor beta
[9] = target: T6, Calpain-2 catalytic subunit (Sus scrofa, UniProt P43367); experiment: pig calpain II inhibitor potency, dose response, biochemical, fluorogenic peptide substrate (AID 1420); type: functional
T6 sequence (P43367 whole entry): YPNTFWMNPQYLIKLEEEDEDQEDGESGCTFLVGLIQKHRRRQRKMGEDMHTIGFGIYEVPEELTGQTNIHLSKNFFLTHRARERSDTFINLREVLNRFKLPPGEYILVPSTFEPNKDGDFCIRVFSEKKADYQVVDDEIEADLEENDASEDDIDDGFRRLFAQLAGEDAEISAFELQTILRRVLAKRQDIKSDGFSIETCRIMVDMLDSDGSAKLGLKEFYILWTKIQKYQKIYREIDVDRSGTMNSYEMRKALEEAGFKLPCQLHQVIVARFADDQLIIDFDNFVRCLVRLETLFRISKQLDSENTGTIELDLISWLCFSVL

[10] = target: T7, Heat shock factor protein 1 (Mus musculus, UniProt P38532); experiment: inhibition of MG132-induced HSE-luciferase signal, confirmation, cell-based, NIH3T3, luminescence, dose retest (AID 2382); type: functional;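 further: NIH3T3 fibroblasts with HSF1-driven luciferase reporter stressed by proteasome inhibitor MG132; luminescence from HSF1-driven luciferase expression after 8 hours of MG132 stress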
T7 sequence (P38532 whole entry): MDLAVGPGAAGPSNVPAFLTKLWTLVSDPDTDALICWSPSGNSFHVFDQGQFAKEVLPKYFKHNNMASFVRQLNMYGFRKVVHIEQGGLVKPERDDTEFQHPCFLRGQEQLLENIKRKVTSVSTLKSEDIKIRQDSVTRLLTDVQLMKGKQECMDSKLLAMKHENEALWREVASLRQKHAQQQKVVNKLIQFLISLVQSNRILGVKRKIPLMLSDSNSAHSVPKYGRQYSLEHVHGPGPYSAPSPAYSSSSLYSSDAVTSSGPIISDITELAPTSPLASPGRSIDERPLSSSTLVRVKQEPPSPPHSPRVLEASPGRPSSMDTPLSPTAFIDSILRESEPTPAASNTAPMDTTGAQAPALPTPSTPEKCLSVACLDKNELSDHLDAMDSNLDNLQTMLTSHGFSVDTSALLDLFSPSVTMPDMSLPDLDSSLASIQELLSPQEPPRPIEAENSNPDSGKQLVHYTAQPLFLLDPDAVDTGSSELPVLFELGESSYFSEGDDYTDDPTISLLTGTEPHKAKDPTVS

[11] = target: T8, Mannose-6-phosphate isomerase (Homo sapiens, UniProt P34949); experiment: human PMI inhibitors, high substrate, primary screen, biochemical, fluorescence intensity, high mannose 6-phosphate (AID 1220)
T8 sequence (P34949 whole entry): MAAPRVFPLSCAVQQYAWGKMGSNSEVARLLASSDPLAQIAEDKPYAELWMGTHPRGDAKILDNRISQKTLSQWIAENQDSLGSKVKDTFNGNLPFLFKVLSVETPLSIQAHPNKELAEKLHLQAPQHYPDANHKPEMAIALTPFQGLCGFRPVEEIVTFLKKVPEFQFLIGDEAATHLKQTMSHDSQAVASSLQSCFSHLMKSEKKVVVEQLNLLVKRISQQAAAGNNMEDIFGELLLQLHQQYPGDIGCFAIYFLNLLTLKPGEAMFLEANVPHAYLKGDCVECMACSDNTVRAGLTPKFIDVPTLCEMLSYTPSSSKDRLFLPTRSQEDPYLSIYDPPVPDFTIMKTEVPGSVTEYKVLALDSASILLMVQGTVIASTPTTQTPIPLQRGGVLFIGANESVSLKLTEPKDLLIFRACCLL

Major prion protein = Major prion protein (Homo sapiens, UniProt P04156); type: functional, cell-based
[12] = THP-1 cell cytotoxicity, dose response, cytotoxicity control for Vif-APOBEC3G degradation inhibitor project, THP-1 cells (AID 1117359); type: functional; conditions: Human immunodeficiency virus 1, THP-1
Coagulation factor XII = target: T9, Coagulation factor XII (Homo sapiens, UniProt P00748); type: functional;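 further: activated factor XIIa alpha cleaving a fluorogenic AMC peptide substrate; inhibitor potency from loss of enzyme activity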
T9 sequence (P00748 whole entry): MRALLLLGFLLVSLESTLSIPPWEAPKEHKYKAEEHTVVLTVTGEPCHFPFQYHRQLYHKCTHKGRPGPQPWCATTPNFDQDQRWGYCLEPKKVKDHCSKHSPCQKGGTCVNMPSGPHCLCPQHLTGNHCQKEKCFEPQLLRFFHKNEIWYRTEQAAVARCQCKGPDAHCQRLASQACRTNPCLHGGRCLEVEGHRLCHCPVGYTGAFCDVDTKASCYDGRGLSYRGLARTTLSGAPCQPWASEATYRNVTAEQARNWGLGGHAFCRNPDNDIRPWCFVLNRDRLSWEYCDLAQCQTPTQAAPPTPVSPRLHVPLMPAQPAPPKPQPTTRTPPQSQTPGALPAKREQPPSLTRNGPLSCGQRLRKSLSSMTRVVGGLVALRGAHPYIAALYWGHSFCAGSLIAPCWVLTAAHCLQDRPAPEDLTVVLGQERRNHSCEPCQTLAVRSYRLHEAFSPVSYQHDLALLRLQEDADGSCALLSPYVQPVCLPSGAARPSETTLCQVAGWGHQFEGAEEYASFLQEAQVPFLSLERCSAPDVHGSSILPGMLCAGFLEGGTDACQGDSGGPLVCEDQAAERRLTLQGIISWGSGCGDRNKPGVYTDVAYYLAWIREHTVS

Vero = experiment: host cell cytotoxicity of antiviral hits, dose response, cytotoxicity control for West Nile virus antiviral project, secondary assay (AID 1650); type: functional; conditions: Chlorocebus sabaeus
[13] = target: T10, DNA repair protein RAD52 homolog (Homo sapiens, UniProt P43351); type: functional, biochemical
T10 sequence (P43351 whole entry): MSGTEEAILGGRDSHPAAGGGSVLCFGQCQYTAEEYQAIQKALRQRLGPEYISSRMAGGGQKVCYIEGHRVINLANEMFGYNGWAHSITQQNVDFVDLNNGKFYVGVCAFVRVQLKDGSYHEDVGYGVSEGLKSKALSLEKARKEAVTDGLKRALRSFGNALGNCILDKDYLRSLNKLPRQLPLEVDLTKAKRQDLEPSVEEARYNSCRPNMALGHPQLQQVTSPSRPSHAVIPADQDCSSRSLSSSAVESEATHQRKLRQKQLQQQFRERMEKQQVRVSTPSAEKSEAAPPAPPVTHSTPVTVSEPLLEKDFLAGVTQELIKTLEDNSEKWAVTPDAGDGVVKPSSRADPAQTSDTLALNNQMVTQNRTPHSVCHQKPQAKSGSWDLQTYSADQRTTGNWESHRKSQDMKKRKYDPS

Structure (SMILES): CCCCOc1nc2ccccc2c(=O)n1-c1ccccc1
- IC50 [1]: 8.15 µM (active)
- IC50 [2]: 13.2 µM (not active)

Structure (SMILES): CNc1nnc(-c2ccc(N(C)C)cc2)s1
- EC50 (HT-1080): > 50 µM (not active)
- EC50 [3]: 2.54 µM (active)
- IC50 [4]: 99.3 µM (active)

Structure (SMILES): Cc1ccc(NC(=O)C(=O)NCCOc2ccc(Cl)cc2)c(C)c1
- IC50 [1]: 7.41 µM (active)
- IC50 [2]: 7.39 µM (active)

Structure (SMILES): COc1ccccc1NC(=O)c1ccccc1NC(=O)c1cc(Cl)ccc1NC(=O)c1ccco1
- IC50 [5]: > 109 µM (inactive)
- IC50 [6]: > 83.3 µM (inactive)
- IC50 (Estrogen receptor): 12.5 µM (active)

Structure (SMILES): CN1C(=O)CSc2ccc(NC(=O)N3CCC(N4CCCCC4)CC3)cc21
- IC50 (Estrogen receptor beta [7]): < 77 µM (not active) and < 23 nM (not active)
- IC50 (Estrogen receptor): 11.8 µM (active)
- IC50 (Estrogen receptor beta [8]): 6.24 µM (active)

Structure (SMILES): O=C1CC(=O)Nc2cc(S(=O)(=O)N3CCN(c4cccc(C(F)(F)F)c4)CC3)ccc2N1
- IC50 [5]: > 109 µM (inactive)
- IC50 [6]: > 83.3 µM (inactive)

Structure (SMILES): c1ccc(OCc2nnc3sc(C4COc5ccccc5O4)nn23)cc1 (stereo not drawn)
- IC50 (Estrogen receptor beta [7]): < 23 nM (not active)
- IC50 (Estrogen receptor): 9.55 µM (active)
- IC50 (Estrogen receptor beta [8]): > 50 µM (not active)

Structure (SMILES): c1ccc(-c2noc(-c3cccs3)n2)nc1
- EC50 (HT-1080): > 50 µM (not active)
- EC50 [3]: > 100 µM (not active)

Structure (SMILES): Cc1nc(-c2ccccc2)sc1C(=O)CSc1ccc(Cl)cc1
- IC50 [1]: 6.99 µM (active)
- IC50 [9]: 11.7 µM (not active)
- IC50 [2]: 5.4 µM (active)

Structure (SMILES): COc1ccc(OC)c(C(=O)c2ccc(C(=O)O)cc2)c1
- IC50 [5]: > 109 µM (inactive)
- IC50 [6]: > 83.3 µM (inactive)
- EC50 [10]: > 195 µM (not active)

Structure (SMILES): CCOC(=O)c1c(-c2ccc(C)s2)csc1N
- IC50 (cells): > 138 µM (inactive)
- IC50 [11]: 35.4 µM (active)
- IC50 (Major prion protein): 104 µM (inactive)

Structure (SMILES): COc1ccc(OC)c(NC(=O)CC2C(=O)NCCN2C(=O)Nc2cccc(Cl)c2)c1 (stereo not drawn)
- CC50 [12]: > 40 µM (active)
- IC50 (Coagulation factor XII): > 50 µM (inactive)

Structure (SMILES): CCN(CC)CCNC(=O)c1cc2c(-c3cccc(OC)c3)nn(C)c2s1
- CC50 (Vero): > 100 µM (active)
- AC50 [13]: 3.79 µM (active)
